In ChEMBL document CHEMBL1130504, “Synthesis and biological activity of artificial analogs of mycalamide A” (Bioorg Med Chem Lett, 1997):
≈ marks a conversion by molar mass, not a printed value.

Experiments:
[1] = tested on: HEL; assay: In vitro inhibitory concentration for antiviral activity was tested against HEL cells; assay type: functional, cell-based; conditions: Homo sapiens
[2] = tested on: HEL; assay: (§1) In vitro minimum inhibitory concentration for antiviral activity was tested against Varicella-Zoster virus(VZV); assay type: functional; conditions: Homo sapiens
[3] = tested on: HeLa; assay: In vitro inhibitory concentration for cytotoxic activity was tested against HeLa cells; assay type: functional, cell-based; conditions: Homo sapiens
[4] = tested on: Vero; assay: In vitro inhibitory concentration for antiviral activity was tested against vero cells; assay type: functional, cell-based; conditions: Chlorocebus sabaeus
[5] = tested on: Vero; assay: (§2) In vitro minimum inhibitory concentration for antiviral activity was tested against Herpes simplex virus type 1(HSV-1); assay type: functional; conditions: Chlorocebus sabaeus
[6] = tested on: Human alphaherpesvirus 3; assay: as §1; assay type: functional
[7] = tested on: Human alphaherpesvirus 1; assay: as §2; assay type: functional

| Compound | IC50 [1] | MIC [2] | IC50 [3] | IC50 [4] | MIC [5] | MIC [6] | MIC [7] |
| --- | --- | --- | --- | --- | --- | --- | --- |
| C=C1C[C@](OC)([C@H](O)C(=O)N[C@@H]2OCO[C@@H]3[C@@H](OC)[C@H](O)[C@@H](CO)O[C@@H]32)O[C@H](C)[C@@H]1C | > 50 µg/mL | 25 µg/mL (≈ 55.9 µM) | > 10 µg/mL | > 50 µg/mL | > 50 µg/mL | – | – |
| C=C1C[C@](OC)([C@@H](O)C(=O)N[C@@H]2OCO[C@H]3[C@@H]2O[C@H](C[C@H](O)CO)C(C)(C)[C@@H]3OC)O[C@H](C)[C@@H]1C | > 50 µg/mL | 12.5 µg/mL (≈ 24.8 µM) | > 10 µg/mL | > 50 µg/mL | 50 µg/mL (≈ 99.3 µM) | – | – |
| C=C1C[C@@H](C)O[C@@](OC)([C@H](O)C(=O)N[C@@H]2OCO[C@H]3[C@@H]2O[C@H](C[C@H](O)CO)C(C)(C)[C@@H]3OC)C1 | > 50 µg/mL | 1.56 µg/mL (≈ 3.19 µM) | 3 µg/mL (≈ 6.13 µM) | 50 µg/mL (≈ 102 µM) | 50 µg/mL (≈ 102 µM) | – | – |
| CO[C@@H]1[C@H]2OCO[C@@H](NC(=O)[C@@H](O)[C@@]3(OC)CCC[C@@H](C)O3)[C@H]2O[C@H](C[C@H](O)CO)C1(C)C | > 50 µg/mL | 3.12 µg/mL (≈ 6.54 µM) | > 10 µg/mL | > 50 µg/mL | 50 µg/mL (≈ 105 µM) | – | – |
| C=C1C[C@](OC)([C@H](O)C(=O)N[C@@H]2OCO[C@@H]3[C@@H](OC)[C@@H]4OC(C)(C)OC[C@H]4O[C@@H]32)O[C@H](C)[C@@H]1C | > 50 µg/mL | – | 10 µg/mL (≈ 20.5 µM) | 50 µg/mL (≈ 103 µM) | – | 12.5 µg/mL (≈ 25.6 µM) | 50 µg/mL (≈ 103 µM) |
| C=C1C[C@](OC)([C@H](O)C(=O)N[C@H]2OCO[C@@H]3[C@@H](OC)[C@H](O)[C@@H](CO)O[C@@H]32)O[C@H](C)[C@@H]1C | > 50 µg/mL | 3.12 µg/mL (≈ 6.98 µM) | 1 µg/mL (≈ 2.23 µM) | 25 µg/mL (≈ 55.9 µM) | 25 µg/mL (≈ 55.9 µM) | – | – |
| C=C1C[C@](OC)([C@@H](O)C(=O)N[C@H]2OCO[C@H]3[C@@H]2O[C@H](C[C@H](O)CO)C(C)(C)[C@@H]3OC)O[C@H](C)[C@@H]1C | 12.5 µg/mL (≈ 24.8 µM) | < 0.391 µg/mL | > 10 µg/mL | 12.5 µg/mL (≈ 24.8 µM) | 50 µg/mL (≈ 99.3 µM) | – | – |
| C=C1C[C@@H](C)O[C@@](OC)([C@H](O)C(=O)N[C@H]2OCO[C@H]3[C@@H]2O[C@H](C[C@H](O)CO)C(C)(C)[C@@H]3OC)C1 | < 0.391 µg/mL | < 0.391 µg/mL | < 0.03 µg/mL | < 0.391 µg/mL | < 0.391 µg/mL | – | – |
| CO[C@@H]1[C@H]2OCO[C@H](NC(=O)[C@@H](O)[C@@]3(OC)CCC[C@@H](C)O3)[C@H]2O[C@H](C[C@H](O)CO)C1(C)C | 1.56 µg/mL (≈ 3.27 µM) | < 0.391 µg/mL | 0.03 µg/mL (≈ 0.0628 µM) | 0.391 µg/mL (≈ 0.819 µM) | 3.12 µg/mL (≈ 6.54 µM) | – | – |
| C=C1C[C@](OC)([C@H](O)C(=O)N[C@H]2OCO[C@@H]3[C@@H](OC)[C@@H]4OC(C)(C)OC[C@H]4O[C@@H]32)O[C@H](C)[C@@H]1C | > 50 µg/mL | – | 3 µg/mL (≈ 6.15 µM) | > 50 µg/mL | – | 12.5 µg/mL (≈ 25.6 µM) | 50 µg/mL (≈ 103 µM) |
| C=C1C[C@](OC)([C@H](O)C(=O)N[C@@H]2OCO[C@H]3[C@@H]2O[C@H](C[C@H](O)CO)C(C)(C)[C@@H]3OC)O[C@H](C)[C@@H]1C | 12.5 µg/mL (≈ 24.8 µM) | 1.56 µg/mL (≈ 3.1 µM) | 3 µg/mL (≈ 5.96 µM) | 12.5 µg/mL (≈ 24.8 µM) | 12.5 µg/mL (≈ 24.8 µM) | – | – |
| Nc1nc2c(ncn2COCCO)c(=O)[nH]1 [ACYCLOVIR] | > 50 µg/mL | – | – | 50 µg/mL (≈ 222 µM) | – | – | 1.56 µg/mL (≈ 6.94 µM) |
| O=c1[nH]cc(F)c(=O)[nH]1 [FLUOROURACIL] | – | – | 3 µg/mL (≈ 23.1 µM) | – | – | – | – |
| C=C1C[C@](OC)([C@H](O)C(=O)N[C@H]2OCO[C@H]3[C@@H]2O[C@H](C[C@H](O)CO)C(C)(C)[C@@H]3OC)O[C@H](C)[C@@H]1C [MYCALAMIDE A] | < 0.391 µg/mL | < 0.391 µg/mL | < 0.03 µg/mL | < 0.391 µg/mL | < 0.391 µg/mL | – | – |
